Experimental data taken from US20260274829A1, “NEW E3 UBIQUITIN LIGASE LIGAND, PROTEIN DEGRADATION AGENT AND USE THEREOF” (GLUETACS THERAPEUTICS (SHANGHAI) CO., LTD., priority 2023, published 2026).

Each molecule was assayed against T1, human Cereblon WT GST-tagged protein (Homo sapiens, UniProt Q96SW2) (assay: CRBN binding, HTRF CEREBLON BINDING kit). Conditions: CRBN binding, HTRF CEREBLON BINDING kit.
T1 construct: purchased CISBIO 64BDCRBNPEH
Outline: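 HTRF competition in which test compounds displace a Thalidomide-Re tracer from GST-tagged human Cereblon WT, detected with a GST Eu antibody. Incubation lasted 3 hours at room temperature, with emission read at 620 and 665 nm. Inhibition rate was derived from 665/620 ratios relative to blank and solvent control wells.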

T1 sequence (Q96SW2 whole entry): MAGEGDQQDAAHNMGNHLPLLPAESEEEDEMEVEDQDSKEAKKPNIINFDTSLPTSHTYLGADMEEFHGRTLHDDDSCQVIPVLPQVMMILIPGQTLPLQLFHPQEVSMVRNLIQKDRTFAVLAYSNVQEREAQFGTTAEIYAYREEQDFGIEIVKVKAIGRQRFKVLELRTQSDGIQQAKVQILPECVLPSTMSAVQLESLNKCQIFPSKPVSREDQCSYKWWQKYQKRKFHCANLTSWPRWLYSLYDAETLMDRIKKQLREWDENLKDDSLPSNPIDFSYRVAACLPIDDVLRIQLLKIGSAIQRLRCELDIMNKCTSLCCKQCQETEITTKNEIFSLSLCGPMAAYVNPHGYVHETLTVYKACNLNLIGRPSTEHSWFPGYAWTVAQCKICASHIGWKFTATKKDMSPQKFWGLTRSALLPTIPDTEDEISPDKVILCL

IC50 [µM]	SMILES
0.5 to 1	CC(=O)c1c(C)c2cnc(Nc3ccc(N4CCN(Cc5ccc(C6CCC(=O)NC6=O)cc5)CC4)cn3)nc2n(C2CCCC2)c1=O (centres unmarked) [GT-06575, 3-(4-((4-(6-((6-acetyl-8-cyclopentyl-5-methyl-7-oxo-7,8-dihydropyrido[2,3-d]pyrimidin-2-yl)amino)pyridin-3-yl)piperazin-1-yl)methyl)phenyl)piperidine-2,6-dione]
0.5 to 1	O=C1CCN(c2ccc(CN3CCC(n4cc(NC(=O)c5coc(-c6ccnc(NCC7CC7)c6)n5)c(C(F)F)n4)CC3)nc2)C(=O)N1 [GT-04958, 2-(2-((cyclopropylmethyl)amino)pyridin-4-yl)-N-(3-(difluoromethyl)-1-(1-((5-(2,4-dioxotetrahydropyrimidin-1(2H)-yl)pyridin-2-yl)methyl)piperidin-4-yl)-1H-pyrazol-4-yl)oxazole-4-carboxamide]
1 to 1.9	O=C1CCN(c2ccc(CN3CCC(N4CCN(c5ccc6c(c5)nc(NC(=O)c5cccc(C(F)(F)F)c5)n6[C@H]5CC[C@@H](CO)CC5)CC4)CC3)nc2)C(=O)N1 [GT-05024, N-(5-(4-(1-((5-(2,4-dioxotetrahydropyrimidin-1(2H)-yl)pyridin-2-yl)methyl)piperidin-4-yl)piperazin-1-yl)-1-((1s,4s)-4-(hydroxymethyl)cyclohexyl)-1H-benzo[d]imidazol-2-yl)-3-(trifluoromethyl)benzamide]
0.5 to 1	CN1CCN([C@@H]2CCCN(c3cnc(C(N)=O)c(Nc4ccc(C5CCN(Cc6ccc(N7CCC(=O)NC7=O)cc6)CC5)cc4)n3)C2)C1=O [GT-04802, (R)-3-((4-(1-(4-(2,4-dioxotetrahydropyrimidin-1(2H)-yl)benzyl)piperidin-4-yl)phenyl)amino)-5-(3-(3-methyl-2-oxoimidazolidin-1-yl)piperidin-1-yl)pyrazine-2-carboxamide]
< 0.5	COc1cc(N2CCN(Cc3cc(C4CCC(=O)NC4=O)cnc3F)CC2)ccc1Nc1ncc(Cl)c(Nc2ccccc2P(C)(C)=O)n1 (centres unmarked) [GT-07710, 3-(5-((4-(4-((5-chloro-4-((2-(dimethylphosphoryl)phenyl)amino)pyrimidin-2-yl)amino)-3-methoxyphenyl)piperazin-1-yl)methyl)-6-fluoropyridin-3-yl)piperidine-2,6-dione]
< 0.5	CCc1cc2c(cc1N1CCC(N3CCN(Cc4cc(C5CCC(=O)NC5=O)cnc4F)CC3)CC1)C(C)(C)c1[nH]c3cc(C#N)ccc3c1C2=O (centres unmarked) [GT-07703, 8-(4-(4-((5-(2,6-dioxopiperidin-3-yl)-2-fluoropyridin-3-yl)methyl)piperazin-1-yl)piperidin-1-yl)-9-ethyl-6,6-dimethyl-11-oxo-6,11-dihydro-5H-benzo[b]carbazole-3-carbonitrile]
1 to 1.9	COc1cc(N2CCN(Cc3cccc(N4CCC(=O)NC4=O)c3)CC2)ccc1Nc1ncc(Cl)c(Nc2ccccc2P(C)(C)=O)n1 [GT-07348, 1-(3-((4-(4-((5-chloro-4-((2-(dimethylphosphoryl)phenyl)amino)pyrimidin-2-yl)amino)-3-methoxyphenyl)piperazin-1-yl)methyl)phenyl)dihydropyrimidine-2,4(1H,3H)-dione]
0.5 to 1	CCc1cc2c(cc1N1CCC(N3CCN(Cc4ccc(N5CCC(=O)NC5=O)c(F)c4)CC3)CC1)C(C)(C)c1[nH]c3cc(C#N)ccc3c1C2=O [GT-07308, 8-(4-(4-(4-(2,4-dioxotetrahydropyrimidin-1(2H)-yl)-3-fluorobenzyl)piperazin-1-yl)piperidin-1-yl)-9-ethyl-6,6-dimethyl-11-oxo-6,11-dihydro-5H-benzo[b]carbazole-3-carbonitrile]
0.5 to 1	Nc1nnc(-c2ccccc2O)cc1N1CCN(Cc2ccc(N3CCC(=O)NC3=O)cn2)CC1 [GT-05016, 1-(6-((4-(3-amino-6-(2-hydroxyphenyl)pyridazin-4-yl)piperazin-1-yl)methyl)pyridin-3-yl)dihydropyrimidine-2,4(1H,3H)-dione]
0.5 to 1	O=C1CCN(c2cccc(CN3CCN(C4CCN(c5ccc(Nc6ncc7nc(Nc8ccccc8)n(C8CCCC8)c7n6)cc5)CC4)CC3)c2)C(=O)N1 [GT-05940, 1-(3-((4-(1-(4-((9-cyclopentyl-8-(phenylamino)-9H-purin-2-yl)amino)phenyl)piperidin-4-yl)piperazin-1-yl)methyl)phenyl)dihydropyrimidine-2,4(1H,3H)-dione]
< 0.5	CN(Cc1cc(C2CCC(=O)NC2=O)cnc1F)C1CCN(c2ccc(-c3cc(F)c4c(c3)C(=O)N(C(C(=O)Nc3nccs3)c3ncn5c3CCC5)C4)cc2)CC1 (centres unmarked) [GT-07560, 2-(6,7-dihydro-5H-pyrrolo[1,2-c]imidazol-1-yl)-2-(6-(4-(4-(((5-(2,6-dioxopiperidin-3-yl)-2-fluoropyridin-3-yl)methyl)(methyl)amino)piperidin-1-yl)phenyl)-4-fluoro-1-oxoisoindolin-2-yl)-N-(thiazol-2-yl)acetamide]
1 to 1.9	O=C1CCC(c2ccc(CN3CCC(N4CCN(c5ccc6c(c5)nc(NC(=O)c5cccc(C(F)(F)F)c5)n6[C@H]5CC[C@@H](CO)CC5)CC4)CC3)cc2)C(=O)N1 (some centres unmarked) [GT-05020, N-(5-(4-(1-(4-(2,6-dioxopiperidin-3-yl)benzyl)piperidin-4-yl)piperazin-1-yl)-1-((1s,4s)-4-(hydroxymethyl)cyclohexyl)-1H-benzo[d]imidazol-2-yl)-3-(trifluoromethyl)benzamide]
0.5 to 1	CC(C)(O)c1cc2nc(C3CCN(Cc4cccc(N5CCC(=O)NC5=O)c4)CC3)sc2cc1NC(=O)c1cccc(C(F)(F)F)n1 [GT-05765, N-(2-(1-(3-(2,4-dioxotetrahydropyrimidin-1(2H)-yl)benzyl)piperidin-4-yl)-5-(2-hydroxypropan-2-yl)benzo[d]thiazol-6-yl)-6-(trifluoromethyl)picolinamide]
1 to 1.9	Cc1ccc(-c2c(C)noc2C)cc1N(CC1CCN(Cc2ccc(N3CCC(=O)NC3=O)cc2F)CC1)c1ccc(C2(C#N)CC2)cc1 [GT-04973, 1-(4-((5-(3,5-dimethylisoxazol-4-yl)-2-methylphenyl)((1-(4-(2,4-dioxotetrahydropyrimidin-1(2H)-yl)-2-fluorobenzyl)piperidin-4-yl)methyl)amino)phenyl)cyclopropane-1-carbonitrile]
1 to 1.9	O=C1CCN(c2ccc(CN3CCC(N4CCN(c5ccc(-c6cc(F)c7c(c6)C(=O)N(C(C(=O)Nc6nccs6)c6ncn8c6CCC8)C7)cc5)CC4)CC3)nc2)C(=O)N1 (centres unmarked) [GT-06329, 2-(6,7-dihydro-5H-pyrrolo[1,2-c]imidazol-1-yl)-2-(6-(4-(4-(1-((5-(2,4-dioxotetrahydropyrimidin-1(2H)-yl)pyridin-2-yl)methyl)piperidin-4-yl)piperazin-1-yl)phenyl)-4-fluoro-1-oxoisoindolin-2-yl)-N-(thiazol-2-yl)acetamide]

SMILES	IC50 [µM]
O=C1CCN(c2cccc(CN3C4CCC3CN(c3ccc(-c5cc(F)c6c(c5)C(=O)N(C(C(=O)Nc5nccs5)c5ncn7c5CCC7)C6)cc3)C4)c2)C(=O)N1 (centres unmarked) [GT-06254, 2-(6,7-dihydro-5H-pyrrolo[1,2-c]imidazol-1-yl)-2-(6-(4-(8-(3-(2,4-dioxotetrahydropyrimidin-1(2H)-yl)benzyl)-3,8-diazabicyclo[3.2.1]octan-3-yl)phenyl)-4-fluoro-1-oxoisoindolin-2-yl)-N-(thiazol-2-yl)acetamide]	< 0.5
C=CC(=O)N1CCC[C@@H](n2nc(-c3ccc(Oc4ccccc4)cc3)c3c(N)ncnc32)C1 [ibrutinib, Ibrutinib, reference compound]	> 10
